Results reported in PubChem BioAssay (NCI).
Values joined by “and” are separate entries in the source; they are usually repeats but may differ in a detail not shown here. Equal entries are not always repeated.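 Tested at 5 concentrations; 48 h exposure; 96-well plates; endpoints linearly interpolated, else capped at highest concentration. At the GI50, growth is halved. TGI marks complete inhibition of growth.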

Legend:
Assay in all cases: NCI-60 cell line screen, 48 h
[1] = tested on: CAKI-1 renal
[2] = tested on: CCRF-CEM leukemia
[3] = tested on: NCI-H226 lung
[4] = tested on: RPMI-8226 leukemia
[5] = tested on: SK-MEL-5 melanoma
[6] = tested on: SNB-19 CNS
[7] = tested on: SNB-75 CNS

For `C[C@]12CC(c3ccccc3O1)C(C(=O)Nc1nc(C34CC5CC(CC(C5)C3)C4)cs1)C(=O)N2` (stereo partly drawn), the TGI [1] was greater than 100 µM, the TGI [2] was greater than 100 µM and the TGI [3] was greater than 100 µM. For the same compound, the TGI [4] was greater than 100 µM, the TGI [5] was greater than 100 µM and the TGI [6] was greater than 100 µM. The TGI [7] was greater than 100 µM.
`CC(=O)OCC1OC(n2c(S)c(C#N)c(-c3ccccc3)c(C#N)c2=O)C(OC(C)=O)C(OC(C)=O)C1OC(C)=O` (stereo not drawn) was tested, and the TGI [1] was greater than 100 µM, the GI50 [2] was > 100 µM and 43.1 µM and the TGI [2] was > 100 µM and 96.7 µM. For the same compound, the TGI [3] was greater than 100 µM, the GI50 [4] was > 100 µM and 35 µM and the TGI [4] was > 100 µM and 75 µM. For the same compound, the GI50 [5] was > 100 µM and 20.2 µM, the TGI [5] was > 100 µM and 41.6 µM and the TGI [6] was greater than 100 µM. For the same compound, the TGI [7] was 56.5 µM and 72.4 µM.
For `COC(=O)C1(SC)C2CCC3C2CCC31` (stereo not drawn), the TGI [1] was greater than 100 µM, the TGI [2] was greater than 100 µM and the TGI [3] was greater than 100 µM. The TGI [4] was greater than 100 µM, the TGI [5] was greater than 100 µM and the TGI [6] was greater than 100 µM. The TGI [7] was greater than 100 µM.
`O=c1[nH]c(NCc2ccc(Cl)cc2)nc2nc[nH]c12` gave a TGI [1] greater than 100 µM, a TGI [2] greater than 100 µM and a TGI [3] greater than 100 µM. The TGI [4] was greater than 100 µM, the TGI [5] was greater than 100 µM and the TGI [6] was greater than 100 µM. The TGI [7] was greater than 100 µM.
`C(#CP(c1ccccc1)c1ccccc1)P(C#CP(c1ccccc1)c1ccccc1)c1ccccc1` was tested, and the TGI [1] was greater than 100 µM, the TGI [2] was greater than 100 µM and the TGI [3] was greater than 100 µM. The TGI [4] was greater than 100 µM, the TGI [5] was greater than 100 µM and the TGI [6] was greater than 100 µM. The TGI [7] was greater than 100 µM.
With `COC1C(N(C)C)=C(c2ccccc2)C(=O)N2CCc3ccccc3C12` (stereo not drawn) the TGI [1] was greater than 100 µM, the TGI [2] was greater than 100 µM and the TGI [3] was greater than 100 µM. For the same compound, the TGI [5] was greater than 100 µM, the TGI [6] was greater than 100 µM and the TGI [7] was greater than 100 µM.
`CCn1c(CCl)nc2c1C(=O)c1ccccc1C2=O` gave a TGI [3] of 0.473 µM, a TGI [4] greater than 100 µM and a TGI [5] of 2.84 µM. For the same compound, the TGI [6] was 3.59 µM and the TGI [7] was 3.62 µM.
In the case of `[N-]=[N+]=CC(=O)OCCCCl`, the TGI [1] was greater than 100 µM, the TGI [2] was greater than 100 µM and the TGI [3] was greater than 100 µM. For the same compound, the TGI [4] was greater than 100 µM, the TGI [5] was greater than 100 µM and the TGI [6] was greater than 100 µM.
`COc1cc2c(cc1OC)C(=O)/C(=C/c1cc(C)cc(C)c1)C2` gave a TGI [3] of 0.617 µM, a TGI [4] greater than 42.6 µM and a TGI [5] of 0.932 µM. For the same compound, the TGI [6] was greater than 89.1 µM and the TGI [7] was greater than 100 µM.
Work on `Cn1c(=O)c2c(nc3sc4ccccc4c(=O)n32)n(C)c1=O` yielded a TGI [1] greater than 100 µM, a TGI [3] greater than 100 µM and a TGI [4] greater than 100 µM. It also gave a TGI [5] greater than 100 µM, a TGI [6] greater than 100 µM and a TGI [7] greater than 100 µM.
`COc1ccc(C2C(=O)c3c(OC)cc(OC)cc3OC2c2cccnc2)cc1` (stereo not drawn) gave a TGI [1] greater than 100 µM, a TGI [2] greater than 100 µM and a TGI [3] greater than 100 µM. For the same compound, the TGI [5] was greater than 100 µM, the TGI [6] was greater than 100 µM and the TGI [7] was 84.1 µM.
Work on `CCC(C)C1=C(O)[N+]2([O-])Oc3ccc(-c4c(O)c(O)c(-c5ccc(OC(C)=O)cc5)c(OC(C)=O)c4OC(C)=O)cc3OC2(C(C)CC)C(=O)N1O` (stereo not drawn) yielded a TGI [1] greater than 50 µM, a TGI [2] greater than 50 µM and a TGI [4] greater than 50 µM. It also gave a TGI [5] greater than 50 µM and a TGI [6] greater than 50 µM.
For `O=C1CN(c2cccc(Cl)c2)C(=O)CN1NCNN1CC(=O)N(c2cccc(Cl)c2)CC1=O`, the TGI [1] was greater than 100 µM, the TGI [2] was greater than 100 µM and the TGI [4] was greater than 100 µM. For the same compound, the TGI [5] was greater than 100 µM, the TGI [6] was greater than 100 µM and the TGI [7] was greater than 100 µM.
`CCOC(=O)C1(C#N)CC1` gave a TGI [1] greater than 100 µM, a TGI [2] greater than 100 µM and a TGI [3] greater than 100 µM. For the same compound, the TGI [5] was greater than 100 µM, the TGI [6] was greater than 100 µM and the TGI [7] was greater than 100 µM.
With `CN(C)c1ccc(/C=C/c2sc3ccccc3[n+]2C)cc1` the TGI [1] was 13.2 µM and 11.6 µM, the TGI [3] was 15.4 µM and 7.31 µM and the GI50 [4] was 0.355 µM. The TGI [4] was 0.719 µM and 4.19 µM, the TGI [5] was 3.93 µM and 3.27 µM and the TGI [6] was 14 µM and > 100 µM. For the same compound, the GI50 [7] was 0.35 µM and 2.3 µM.
Compound `COc1cc2c(/C=C3/C(=O)N(C)c4ccc(O)cc43)c(Cl)[nH]c2cc1C` has a TGI [1] of 13.6 µM, a TGI [3] of 16.2 µM and a TGI [4] of 4.7 µM. For the same compound, the TGI [5] was 6.35 µM, the TGI [6] was 5.35 µM and the TGI [7] was 20.8 µM.
Compound `CN(CCNC(=O)c1c[nH]c2c1Cc1ccccc1-2)CCNC(=O)c1c[nH]c2c1Cc1ccccc1-2` has a TGI [1] greater than 100 µM, a TGI [3] of 71.9 µM and a TGI [4] of 73.4 µM. The TGI [5] was 71.4 µM and the TGI [6] was greater than 100 µM.
For `O=C1CSC(c2cccc(Cl)c2)N1c1ccc(-c2ccc(-n3c(-c4ccccc4)nc4ccccc4c3=O)cc2)cc1` (stereo not drawn), the TGI [1] was greater than 100 µM, the TGI [2] was greater than 100 µM and the TGI [3] was greater than 100 µM. For the same compound, the TGI [4] was greater than 100 µM, the TGI [5] was 84.4 µM and the TGI [6] was greater than 100 µM.
In the case of `COc1ccc(NCC(=O)Nn2c(-c3ccccc3)nc3ccccc3c2=O)cc1`, the TGI [2] was greater than 100 µM, the TGI [3] was greater than 100 µM and the TGI [4] was greater than 100 µM. For the same compound, the TGI [5] was 32.8 µM, the TGI [6] was greater than 100 µM and the TGI [7] was greater than 100 µM.
For `CC1OC2OC3C(OCC(O)C3O)OC(=O)[C@]34CCC(C)(C)CC3C3=CCC5[C@@]6(C)C[C@H](O)[C@H](OC7OC(CO)C(O)C(O)C7OC7OCC(OC(=O)CC(C)(O)CC(=O)OC1C(O)C2O)C(O)C7O)[C@@](C)(CO)C6CC[C@@]5(C)[C@]3(C)CC4` (stereo partly drawn), the TGI [2] was 24 µM, the TGI [3] was 35.9 µM and the TGI [4] was 17.7 µM. It also gave a TGI [5] of 16.3 µM, a TGI [6] of 21.3 µM and a TGI [7] of 18.4 µM.
Compound `O=C(O)[C@H](CCC[C@H]1C(=O)O[C@H](c2ccccc2)[C@H](c2ccccc2)N1C(=O)OCc1ccccc1)N[C@@H](c1ccccc1)[C@H](O)c1ccccc1` has a TGI [1] greater than 100 µM, a TGI [2] of 46.4 µM and a TGI [4] of 54 µM. The TGI [5] was 43 µM, the TGI [6] was 61.3 µM and the TGI [7] was 55.1 µM.
With `CN(CCc1ccccn1)C(=S)N/N=C(\c1ccccc1)c1ccccn1` the TGI [1] was 5.3 µM, the TGI [2] was greater than 100 µM and the TGI [4] was 2.14 µM. For the same compound, the TGI [5] was 6.65 µM, the TGI [6] was 9.07 µM and the TGI [7] was 4.25 µM.
`C[C@@H]1CC(=O)C[C@@H]2CC[C@H]3[C@@H]4CC[C@H](OC(=O)c5cccc6cc7ccccc7nc56)[C@H]4CC[C@@H]3[C@H]21` was tested, and the TGI [1] was 33.7 µM, the TGI [3] was 63.7 µM and the TGI [5] was 28.3 µM. The TGI [6] was 37.5 µM and the TGI [7] was 36.5 µM.
With `O=C(O)/C=C/c1ccc2c(c1)CC1(Cc3ccccc3C1)C2` the TGI [2] was greater than 100 µM, the TGI [3] was 99.4 µM and the TGI [4] was greater than 100 µM. The TGI [5] was greater than 100 µM.
`CCOC(=O)c1c(SC(=O)c2ccc(OC)cc2)n(-c2ccccc2)c(=S)n(-c2ccccc2)c1=O` was tested, and the TGI [1] was greater than 100 µM, the TGI [2] was greater than 100 µM and the TGI [3] was greater than 100 µM. It also gave a TGI [6] greater than 100 µM and a TGI [7] greater than 100 µM.
With `C=C1C(=O)O[C@H]2C[C@@H]1[C@@H](O)[C@H](O)[C@@H](C)CCCC(C)=CCC[C@@]2(C)O` the TGI [1] was 22.3 µM, the TGI [2] was greater than 100 µM and the TGI [4] was 45.3 µM. The TGI [5] was 48.4 µM, the TGI [6] was greater than 100 µM and the TGI [7] was greater than 100 µM.
Compound `Cc1ccc2nc(-c3ccc(C(C)(C)C)cc3)oc(=O)c2c1` has a TGI [1] of 39.6 µM, a TGI [2] of 46.9 µM and a TGI [4] of 48.9 µM. For the same compound, the TGI [5] was 27.6 µM, the TGI [6] was 74.2 µM and the TGI [7] was 47.7 µM.
